Test results from the supplement of paper PMC10307832.

Key:
Assay in all cases: relative viability (nuclei count vs DMSO), 5 days (fraction); higher = more cells survive
AZD8055 + Crizotinib = compound: COc1ccc(-c2ccc3c(N4CCOC[C@@H]4C)nc(N4CCOC[C@@H]4C)nc3n2)cc1CO [AZD8055] + C[C@@H](Oc1cc(-c2cnn(C3CCNCC3)c2)cnc1N)c1c(Cl)ccc(F)c1Cl [Crizotinib] (partner 1 µM)
Method in brief: (§1)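 Five library-drug doses in √10 steps were combined with a fixed anchor-drug dose, or a single drug was given alone, by pin tool to lung cancer cell lines in 1536-well plates the day after seeding. Nuclei were stained and counted after 5 days. Relative viability is the nuclei count in treated wells over that in vehicle wells, taken as the median of duplicate plates.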

AZD8055 + Vorinostat = compound: COc1ccc(-c2ccc3c(N4CCOC[C@@H]4C)nc(N4CCOC[C@@H]4C)nc3n2)cc1CO [AZD8055] + O=C(CCCCCCC(=O)Nc1ccccc1)NO [Vorinostat] (partner 1 µM)
Method in brief: as §1

AZD8055 + Palbociclib = compound: COc1ccc(-c2ccc3c(N4CCOC[C@@H]4C)nc(N4CCOC[C@@H]4C)nc3n2)cc1CO [AZD8055] + CC(=O)c1c(C)c2cnc(Nc3ccc(N4CCNCC4)cn3)nc2n(C2CCCC2)c1=O [Palbociclib] (partner 0.5 µM)
Method in brief: as §1

AZD8055 + AZD7762 = compound: COc1ccc(-c2ccc3c(N4CCOC[C@@H]4C)nc(N4CCOC[C@@H]4C)nc3n2)cc1CO [AZD8055] + NC(=O)Nc1cc(-c2cccc(F)c2)sc1C(=O)N[C@H]1CCCNC1 [AZD7762] (partner 0.2 µM)
Method in brief: as §1

| Cell Line | relative viability (AZD8055 + Crizotinib; first compound 0.01 µM) | relative viability (AZD8055 + Crizotinib; first compound 0.03162 µM) | relative viability (AZD8055 + Crizotinib; first compound 0.1 µM) | relative viability (AZD8055 + Crizotinib; first compound 0.3162 µM) | relative viability (AZD8055 + Crizotinib; first compound 1 µM) | relative viability (AZD8055 + Vorinostat; first compound 0.01 µM) | relative viability (AZD8055 + Vorinostat; first compound 0.03162 µM) | relative viability (AZD8055 + Vorinostat; first compound 0.1 µM) | relative viability (AZD8055 + Vorinostat; first compound 0.3162 µM) | relative viability (AZD8055 + Vorinostat; first compound 1 µM) | relative viability (AZD8055 + Palbociclib; first compound 0.01 µM) | relative viability (AZD8055 + Palbociclib; first compound 0.03162 µM) | relative viability (AZD8055 + Palbociclib; first compound 0.1 µM) | relative viability (AZD8055 + Palbociclib; first compound 0.3162 µM) | relative viability (AZD8055 + Palbociclib; first compound 1 µM) | relative viability (AZD8055 + AZD7762; first compound 0.01 µM) | relative viability (AZD8055 + AZD7762; first compound 0.03162 µM) | relative viability (AZD8055 + AZD7762; first compound 0.1 µM) | relative viability (AZD8055 + AZD7762; first compound 0.3162 µM) | relative viability (AZD8055 + AZD7762; first compound 1 µM) |
| --- | --- | --- | --- | --- | --- | --- | --- | --- | --- | --- | --- | --- | --- | --- | --- | --- | --- | --- | --- | --- |
| HCC-827 | 1 | 0.965 | 0.991 | 0.479 | 0.393 | 0.849 | 0.882 | 0.89 | 0.521 | 0.397 | 0.482 | 0.406 | 0.381 | 0.227 | 0.181 | 0.203 | 0.319 | 0.189 | 0.212 | 0.165 |
| HOP-62 | 0.837 | 0.853 | 0.71 | 0.387 | 0.345 | 0.636 | 0.413 | 0.587 | 0.298 | 0.183 | 0.428 | 0.441 | 0.414 | 0.171 | 0.172 | 0.677 | 0.418 | 0.512 | 0.167 | 0.111 |
| LC-2-ad | 0.429 | 0.502 | 0.473 | 0.384 | 0.312 | 0.773 | 0.688 | 0.705 | 0.497 | 0.457 | 0.534 | 0.471 | 0.438 | 0.388 | 0.312 | 0.909 | 0.873 | 0.816 | 0.791 | 0.645 |
| LCLC-97TM1 | 0.365 | 0.352 | 0.154 | 0.158 | 0.193 | 0.751 | 0.585 | 0.414 | 0.354 | 0.308 | 0.205 | 0.164 | 0.129 | 0.0928 | 0.0897 | 0.23 | 0.176 | 0.173 | 0.145 | 0.11 |
| LCLC-103H | 1.04 | 0.918 | 0.719 | 0.807 | 0.484 | 0.825 | 0.765 | 0.619 | 0.445 | 0.437 | 0.52 | 0.48 | 0.398 | 0.468 | 0.421 | 0.739 | 0.608 | 0.592 | 0.343 | 0.371 |
| LK-2 | 0.231 | 0.188 | 0.267 | 0.205 | 0.211 | 0.3 | 0.172 | 0.271 | 0.167 | 0.157 | 0.387 | 0.399 | 0.347 | 0.17 | 0.102 | 0.285 | 0.204 | 0.205 | 0.104 | 0.135 |
| LOU-NH91 | 0.71 | 0.713 | 0.673 | 0.592 | 0.531 | 0.872 | 0.95 | 0.63 | 0.596 | 0.57 | 0.531 | 0.536 | 0.589 | 0.552 | 0.497 | 0.684 | 0.702 | 0.621 | 0.557 | 0.555 |
| LU99A | 0.517 | 0.329 | 0.234 | 0.233 | 0.232 | 0.385 | 0.259 | 0.225 | 0.186 | 0.153 | 0.312 | 0.285 | 0.167 | 0.198 | 0.2 | 0.366 | 0.242 | 0.185 | 0.152 | 0.133 |
| LXF-289 | 0.902 | 0.855 | 0.807 | 0.702 | 0.686 | 0.745 | 0.754 | 0.709 | 0.523 | 0.515 | 0.621 | 0.581 | 0.578 | 0.3 | 0.23 | 1.28 | 1.2 | 1.19 | 0.978 | 0.744 |
| NCI-H23 | 0.562 | 0.507 | 0.41 | 0.295 | 0.265 | 0.44 | 0.457 | 0.449 | 0.235 | 0.251 | 0.439 | 0.367 | 0.295 | 0.193 | 0.187 | 0.202 | 0.245 | 0.233 | 0.161 | 0.14 |
| NCI-H322M | 0.868 | 1.03 | 0.825 | 0.796 | 0.478 | 0.85 | 0.839 | 0.8 | 0.511 | 0.538 | 0.457 | 0.492 | 0.383 | 0.468 | 0.41 | 0.51 | 0.454 | 0.434 | 0.426 | 0.432 |
| NCI-H358 | 0.678 | 0.934 | 0.69 | 0.442 | 0.211 | 0.775 | 0.701 | 0.624 | 0.207 | 0.121 | 0.143 | 0.137 | 0.135 | 0.115 | 0.101 | 0.701 | 0.557 | 0.523 | 0.308 | 0.203 |
| NCI-H441 | 0.767 | 0.667 | 0.565 | 0.359 | 0.232 | 0.985 | 0.72 | 0.534 | 0.346 | 0.246 | 0.178 | 0.185 | 0.179 | 0.144 | 0.14 | 1.24 | 1.14 | 0.837 | 0.562 | 0.382 |
